Experiments:
[1] = tested on: NCI/ADR-RES; test: Growth inhibition of human NCI/ADR-RES cells at 10 uM incubated for 48 hrs by sulforhodamine B assay relative to control; type: functional; conditions: read-out: GI
[2] = molecular target: Vascular endothelial growth factor receptor 2 (Homo sapiens, UniProt P35968); test: Inhibition of human N-terminal GST tagged VEGFR-2 expressed in baculovirus infected Sf9 cells using poly (Glu,Tyr) 4:1 as substrate in presence of ATP by Kinase-Glo luminescence assay
[3] = tested on: RXF 393; test: Growth inhibition of human RXF393 cells at 10 uM incubated for 48 hrs by sulforhodamine B assay relative to control; type: functional; conditions: RXF 393, 48 h, read-out: GI
[4] = tested on: MOLT-4; test: Growth inhibition of human MOLT4 cells at 10 uM incubated for 48 hrs by sulforhodamine B assay relative to control; type: functional; conditions: MOLT-4, 48 h, read-out: GI
[5] = tested on: SF-539; test: Growth inhibition of human SF539 cells at 10 uM incubated for 48 hrs by sulforhodamine B assay relative to control; type: functional; conditions: SF-539, 48 h, read-out: GI
[6] = tested on: RPMI-8226; test: Growth inhibition of human RPMI8226 cells at 10 uM incubated for 48 hrs by sulforhodamine B assay relative to control; type: functional; conditions: RPMI-8226, 48 h, read-out: GI
[7] = tested on: UO-31; test: Growth inhibition of human UO31 cells at 10 uM incubated for 48 hrs by sulforhodamine B assay relative to control; type: functional; conditions: UO-31, 48 h, read-out: GI
[8] = tested on: CAKI-1; test: Growth inhibition of human Caki1 cells at 10 uM incubated for 48 hrs by sulforhodamine B assay relative to control; type: functional; conditions: CAKI-1, 48 h, read-out: GI
[9] = tested on: MDA-MB-468; test: Growth inhibition of human MDA-MB-468 cells at 10 uM incubated for 48 hrs by sulforhodamine B assay relative to control; type: functional; conditions: MDA-MB-468, 48 h, read-out: GI
[10] = tested on: MCF7; test: Cytotoxicity against human MCF7 cells expressing VEGFR2 and wild type BRAF measured after 48 hrs by sulforhodamine B assay; type: functional, cell-based; conditions: MCF7, 48 h
[11] = tested on: IGROV-1; test: Growth inhibition of human IGROV1 cells at 10 uM incubated for 48 hrs by sulforhodamine B assay relative to control; type: functional; conditions: IGROV-1, 48 h, read-out: GI
[12] = tested on: MDA-MB-435; test: Growth inhibition of human MDA-MB-435 cells at 10 uM incubated for 48 hrs by sulforhodamine B assay relative to control; type: functional; conditions: MDA-MB-435, 48 h, read-out: GI
[13] = tested on: EKVX; test: Growth inhibition of human EKVX cells at 10 uM incubated for 48 hrs by sulforhodamine B assay relative to control; type: functional; conditions: read-out: GI
[14] = tested on: SR; test: Growth inhibition of human SR cells at 10 uM incubated for 48 hrs by sulforhodamine B assay relative to control; type: functional; conditions: read-out: GI
[15] = tested on: CCRF-CEM; test: Growth inhibition of human CCRF-CEM cells at 10 uM incubated for 48 hrs by sulforhodamine B assay relative to control; type: functional; conditions: read-out: GI
[16] = tested on: T47D; test: Growth inhibition of human T47D cells at 10 uM incubated for 48 hrs by sulforhodamine B assay relative to control; type: functional; conditions: read-out: GI
[17] = tested on: A498; test: Growth inhibition of human A498 cells at 10 uM incubated for 48 hrs by sulforhodamine B assay relative to control; type: functional; conditions: A498, 48 h, read-out: GI
[18] = tested on: SNB-19; test: Growth inhibition of human SNB19 cells at 10 uM incubated for 48 hrs by sulforhodamine B assay relative to control; type: functional; conditions: SNB-19, 48 h, read-out: GI
[19] = tested on: M14; test: Growth inhibition of human M14 cells at 10 uM incubated for 48 hrs by sulforhodamine B assay relative to control; type: functional; conditions: M14, 48 h, read-out: GI
[20] = tested on: PC-3; test: Growth inhibition of human PC3 cells at 10 uM incubated for 48 hrs by sulforhodamine B assay relative to control; type: functional; conditions: PC-3, 48 h, read-out: GI
[21] = tested on: MCF7; test: Growth inhibition of human MCF7 cells at 10 uM incubated for 48 hrs by sulforhodamine B assay relative to control; type: functional; conditions: MCF7, 48 h, read-out: GI
[22] = tested on: UACC-62; test: Growth inhibition of human UACC62 cells at 10 uM incubated for 48 hrs by sulforhodamine B assay relative to control; type: functional; conditions: UACC-62, 48 h, read-out: GI
[23] = tested on: OVCAR-8; test: Growth inhibition of human OVCAR8 cells at 10 uM incubated for 48 hrs by sulforhodamine B assay relative to control; type: functional; conditions: OVCAR-8, 48 h, read-out: GI
[24] = tested on: SK-MEL-5; test: Growth inhibition of human SK-MEL-5 cells at 10 uM incubated for 48 hrs by sulforhodamine B assay relative to control; type: functional; conditions: SK-MEL-5, 48 h, read-out: GI
[25] = tested on: MDA-MB-231; test: Growth inhibition of human MDA-MB-231 cells at 10 uM incubated for 48 hrs by sulforhodamine B assay relative to control; type: functional; conditions: MDA-MB-231, 48 h, read-out: GI
[26] = tested on: SNB-75; test: Growth inhibition of human SNB75 cells at 10 uM incubated for 48 hrs by sulforhodamine B assay relative to control; type: functional; conditions: SNB-75, 48 h, read-out: GI
[27] = tested on: HOP-92; test: Growth inhibition of human HOP92 cells at 10 uM incubated for 48 hrs by sulforhodamine B assay relative to control; type: functional; conditions: HOP-92, 48 h, read-out: GI
[28] = tested on: T47D; test: Cytotoxicity against human T47D cells expressing wild type BRAF measured after 48 hrs by sulforhodamine B assay; type: functional, cell-based
[29] = tested on: NCI-H460; test: Growth inhibition of human NCI-H460 cells at 10 uM incubated for 48 hrs by sulforhodamine B assay relative to control; type: functional; conditions: NCI-H460, 48 h, read-out: GI
[30] = tested on: K562; test: Growth inhibition of human K562 cells at 10 uM incubated for 48 hrs by sulforhodamine B assay relative to control; type: functional; conditions: K562, 48 h, read-out: GI
[31] = tested on: OVCAR-3; test: Growth inhibition of human OVCAR3 cells at 10 uM incubated for 48 hrs by sulforhodamine B assay relative to control; type: functional; conditions: OVCAR-3, 48 h, read-out: GI
[32] = tested on: Hs-578T; test: Growth inhibition of human Hs578T cells at 10 uM incubated for 48 hrs by sulforhodamine B assay relative to control; type: functional; conditions: read-out: GI
[33] = tested on: HCT-15; test: Growth inhibition of human HCT15 cells at 10 uM incubated for 48 hrs by sulforhodamine B assay relative to control; type: functional; conditions: HCT-15, 48 h, read-out: GI
[34] = tested on: NCI-H522; test: Growth inhibition of human NCI-H522 cells at 10 uM incubated for 48 hrs by sulforhodamine B assay relative to control; type: functional; conditions: NCI-H522, 48 h, read-out: GI
[35] = tested on: MCF7; test: Inhibition of VEGFR2 level in human MCF7 cells at 10 uM measured after 48 hrs by ELISA relative to control; type: functional; conditions: MCF7, 48 h
[36] = tested on: NCI-H226; test: Growth inhibition of human NCI-H226 cells at 10 uM incubated for 48 hrs by sulforhodamine B assay relative to control; type: functional; conditions: NCI-H226, 48 h, read-out: GI
[37] = tested on: NCI-H23; test: Growth inhibition of human NCI-H23 cells at 10 uM incubated for 48 hrs by sulforhodamine B assay relative to control; type: functional; conditions: NCI-H23, 48 h, read-out: GI
[38] = tested on: HT-29; test: Growth inhibition of human HT-29 cells at 10 uM incubated for 48 hrs by sulforhodamine B assay relative to control; type: functional; conditions: HT-29, 48 h, read-out: GI
[39] = tested on: BT-549; test: Growth inhibition of human BT549 cells at 10 uM incubated for 48 hrs by sulforhodamine B assay relative to control; type: functional; conditions: BT-549, 48 h, read-out: GI
[40] = tested on: LOX IMVI; test: Growth inhibition of human LOXIMVI cells at 10 uM incubated for 48 hrs by sulforhodamine B assay relative to control; type: functional; conditions: read-out: GI
[41] = tested on: HCT-116; test: Growth inhibition of human HCT116 cells at 10 uM incubated for 48 hrs by sulforhodamine B assay relative to control; type: functional; conditions: HCT-116, 48 h, read-out: GI
[42] = tested on: KM12; test: Growth inhibition of human KM12 cells at 10 uM incubated for 48 hrs by sulforhodamine B assay relative to control; type: functional; conditions: KM12, 48 h, read-out: GI
[43] = tested on: OVCAR-4; test: Growth inhibition of human OVCAR4 cells at 10 uM incubated for 48 hrs by sulforhodamine B assay relative to control; type: functional; conditions: OVCAR-4, 48 h, read-out: GI
[44] = tested on: SN12C; test: Growth inhibition of human SN12C cells at 10 uM incubated for 48 hrs by sulforhodamine B assay relative to control; type: functional; conditions: read-out: GI

Chain of Vascular endothelial growth factor receptor 2 (P35968 whole entry): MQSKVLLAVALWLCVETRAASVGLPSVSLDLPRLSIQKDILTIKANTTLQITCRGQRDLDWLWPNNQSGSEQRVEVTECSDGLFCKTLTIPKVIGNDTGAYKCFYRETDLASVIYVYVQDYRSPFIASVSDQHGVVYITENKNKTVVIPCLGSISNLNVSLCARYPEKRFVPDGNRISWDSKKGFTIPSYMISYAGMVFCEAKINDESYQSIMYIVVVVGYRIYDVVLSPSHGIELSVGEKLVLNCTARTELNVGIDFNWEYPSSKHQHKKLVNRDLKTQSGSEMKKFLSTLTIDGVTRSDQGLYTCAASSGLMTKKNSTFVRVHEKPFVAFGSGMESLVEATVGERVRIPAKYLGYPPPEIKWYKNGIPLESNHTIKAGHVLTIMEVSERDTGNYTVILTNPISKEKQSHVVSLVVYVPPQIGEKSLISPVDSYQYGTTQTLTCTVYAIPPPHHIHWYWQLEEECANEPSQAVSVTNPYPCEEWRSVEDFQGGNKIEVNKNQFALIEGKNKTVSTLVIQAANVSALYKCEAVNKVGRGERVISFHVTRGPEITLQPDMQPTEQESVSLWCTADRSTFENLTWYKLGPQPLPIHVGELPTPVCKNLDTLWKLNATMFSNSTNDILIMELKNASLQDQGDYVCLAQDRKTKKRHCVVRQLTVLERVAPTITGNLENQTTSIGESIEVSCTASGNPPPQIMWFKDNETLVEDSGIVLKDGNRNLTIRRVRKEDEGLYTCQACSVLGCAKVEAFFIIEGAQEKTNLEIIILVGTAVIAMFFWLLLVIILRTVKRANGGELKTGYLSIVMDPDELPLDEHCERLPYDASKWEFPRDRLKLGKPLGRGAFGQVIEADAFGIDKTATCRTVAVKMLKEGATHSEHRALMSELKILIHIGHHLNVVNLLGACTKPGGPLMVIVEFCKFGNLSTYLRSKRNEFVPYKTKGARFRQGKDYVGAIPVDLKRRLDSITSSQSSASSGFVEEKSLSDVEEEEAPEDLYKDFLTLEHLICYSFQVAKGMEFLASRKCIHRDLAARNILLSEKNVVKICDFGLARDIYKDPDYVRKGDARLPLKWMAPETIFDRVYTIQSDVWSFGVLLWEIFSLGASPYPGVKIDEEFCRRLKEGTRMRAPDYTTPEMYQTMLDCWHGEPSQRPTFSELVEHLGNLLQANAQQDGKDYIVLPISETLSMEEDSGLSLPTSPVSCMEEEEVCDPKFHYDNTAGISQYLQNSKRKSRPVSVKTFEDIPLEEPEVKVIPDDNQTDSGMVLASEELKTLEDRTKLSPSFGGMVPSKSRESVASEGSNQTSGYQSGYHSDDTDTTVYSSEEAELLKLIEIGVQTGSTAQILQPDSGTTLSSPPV

With `COc1ccc(C(=O)CSc2nccc(Nc3cccc(C(C)=O)c3)n2)cc1` the inhibition of growth at 10 µM [1] was 40%, the IC50 [2] was 0.42 µM and the inhibition of growth at 10 µM [3] was 14%. For the same compound, the inhibition of growth at 10 µM [4] was 53%, the inhibition of growth at 10 µM [5] was 12% and the inhibition of growth at 10 µM [6] was 42%. It also gave an inhibition of growth at 10 µM [7] of 55%, an inhibition of growth at 10 µM [8] of 35% and an inhibition of growth at 10 µM [9] of 34%. The IC50 [10] was 67.1 µM, the inhibition of growth at 10 µM [11] was 18% and the inhibition of growth at 10 µM [12] was 15%. The inhibition of growth at 10 µM [13] was 29%, the inhibition of growth at 10 µM [14] was 35% and the inhibition of growth at 10 µM [15] was 46%. The inhibition of growth at 10 µM [16] was 45%, the inhibition of growth at 10 µM [17] was 22% and the inhibition of growth at 10 µM [18] was 13%. For the same compound, the inhibition of growth at 10 µM [19] was 15%, the inhibition of growth at 10 µM [20] was 37% and the inhibition of growth at 10 µM [21] was 11%. For the same compound, the inhibition of growth at 10 µM [22] was 35%, the inhibition of growth at 10 µM [23] was 32% and the inhibition of growth at 10 µM [24] was 22%. It also gave an inhibition of growth at 10 µM [25] of 27%, an inhibition of growth at 10 µM [26] of 31% and an inhibition of growth at 10 µM [27] of 24%. It also gave an IC50 [28] of 13.2 µM, an inhibition of growth at 10 µM [29] of 14% and an inhibition of growth at 10 µM [30] of 37%. The inhibition of growth at 10 µM [31] was 12%, the inhibition of growth at 10 µM [32] was 19% and the inhibition of growth at 10 µM [33] was 22%. For the same compound, the inhibition of growth at 10 µM [34] was 37%, the inhibition at 10 µM [35] was 16% and the inhibition of growth at 10 µM [36] was 35%. The inhibition of growth at 10 µM [37] was 19%, the inhibition of growth at 10 µM [38] was 11% and the inhibition of growth at 10 µM [39] was 27%. The inhibition of growth at 10 µM [40] was 23%, the inhibition of growth at 10 µM [41] was 23% and the inhibition of growth at 10 µM [42] was 15%. It also gave an inhibition of growth at 10 µM [43] of 19% and an inhibition of growth at 10 µM [44] of 22%.

Reference: ChEMBL document CHEMBL4396916, “Novel potent substituted 4-amino-2-thiopyrimidines as dual VEGFR-2 and BRAF kinase inhibitors” (Eur J Med Chem, 2019)
